Data as given in patent US12006330B2, “Substituted macrocyclic compounds and related methods of treatment” (Alkermes, Inc., priority 2020, dated 2024).

Key:
Format in all cases: in vitro ADME
MDCK-MDR1 cells = assay: MDCK-MDR1 permeability assay; conditions: MDCK-MDR1 cells; test compound 3 μM; 2 hours at 37 degrees C; apical to basolateral
Outline: (§1)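 Receiver and donor compartments were analysed by LC-MS/MS after a 2 h incubation at 37 °C of 3 μM compound in HBSS on MDCK-MDR1 monolayers, run in both directions with Lucifer Yellow (100 μM) as integrity marker. Apparent permeability came from translocation rate, insert area and initial concentration; B→A/A→B Papp gave the efflux ratio, alongside percent recovery.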

MDR1 = assay: MDCK-MDR1 permeability assay; conditions: dog, MDCK-MDR1, MDCK-MDR1 cells; for efflux ratio at 2 h, 3 μM: Papp B→A divided by Papp A→B, read-out: Efflux ratio (ER); for Papp A→B at 2 h, 3 μM: test compound 3 μM, 2 hours at 37 degrees C, apical to basolateral
Outline: as §1

[1] = Hepatocytes stability assay (human hepatocytes); conditions: both sexes, human, cryopreserved hepatocytes, cryopreserved human hepatocytes (pool of 50 mixed gender); 1 μM test compound; 1×10^6 cell/mL; 37 degrees C; read-out: CLint (μL/min/million cells)
Outline: (§2)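 Compound at 1 μM (0.1% DMSO) was incubated with cryopreserved pooled human hepatocytes, 1×10^6 cells/mL in Krebs-Henseleit buffer, at 37 °C, sampled up to 240 min. Parent depletion by LC-MS/MS; half-life from first-order decay gave CLint, scaled to hepatic clearance by well-stirred model (fu assumed 1) and extraction ratio.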

human hepatocytes = assay: Hepatocytes stability assay (human hepatocytes); conditions: human hepatocytes; scaled hepatic clearance divided by liver blood flow (well-stirred model, fu assumed unity)
Outline: as §2

| Compound | Papp A → B (10^−6 cm/s) (MDCK-MDR1 cells) | efflux ratio at 2 h, 3 μM (MDR1) | hepatocyte CLint at 1 μM [1] | Extraction Ratio (ER) (human hepatocytes) | Papp A→B at 2 h, 3 μM (MDR1) |
| --- | --- | --- | --- | --- | --- |
| Cc1ncnc2c1[C@H]1CC[C@H](CC1)OCC1[C@@H](NS(C)(=O)=O)CCCN1C(=O)CO2 (stereo in doubt) [Compound 27] | 0.33 10^−6 cm/s | 48 | < 1.9 µL/min/1e6 cells | <0.22 |  |
| O=C1COc2ncccc2[C@H]2CC[C@H](CC2)OCC2[C@@H](NS(=O)(=O)C(F)(F)F)CCCN12 (stereo in doubt) [Compound 91] |  | 47 | 4.8 µL/min/1e6 cells | 0.42 | 0.96 ×10⁻⁶ cm/s |
| Cc1ccnc2c1[C@H]1CC[C@H](CC1)OCC1[C@@H](NS(=O)(=O)C(F)(F)F)CCN1C(=O)CO2 (stereo in doubt) [Compound 94] |  | 4.7 | < 1.9 µL/min/1e6 cells | <0.22 | 8.7 ×10⁻⁶ cm/s |
| O=C1COc2cccc(F)c2[C@H]2CC[C@H](CC2)OCC2[C@@H](NS(=O)(=O)C(F)(F)F)CCCN12 (stereo in doubt) [Compound 95] |  | 15 | 3.3 µL/min/1e6 cells | 0.33 | 2 ×10⁻⁶ cm/s |
| O=C1COc2nccnc2[C@H]2CC[C@H](CC2)OCC2[C@@H](NS(=O)(=O)C(F)(F)F)CCCN12 (stereo in doubt) [Compound 98] |  | 57 | < 1.4 µL/min/1e6 cells | <0.22 | 0.52 ×10⁻⁶ cm/s |
| Cc1ncnc2c1[C@H]1CC[C@H](CC1)OCC1[C@@H](NS(=O)(=O)C(F)(F)F)CCCN1C(=O)CO2 (stereo in doubt) [Compound 99] |  | 52 | < 1.4 µL/min/1e6 cells | <0.22 | 0.46 ×10⁻⁶ cm/s |
| O=C1COc2ccccc2[C@H]2CC[C@H](CC2)OCC2[C@@H](NS(=O)(=O)C(F)(F)F)CCN12 (stereo in doubt) [Compound 100] |  | 1.3 | 2.5 µL/min/1e6 cells | 0.274 | 12 ×10⁻⁶ cm/s |
| Cc1cccc2c1[C@H]1CC[C@H](CC1)OC[C@H]1[C@@H](NS(C)(=O)=O)CCN1C(=O)CO2 [Compound 20] |  | 6.4 | 27 µL/min/1e6 cells | 0.80 | 6.8 ×10⁻⁶ cm/s |
| CC(C)S(=O)(=O)N[C@H]1CCN2C(=O)COc3c(F)cc(F)cc3[C@H]3CC[C@H](CC3)OC[C@@H]12 [Compound 29] |  | 2.5 | 15 µL/min/1e6 cells | 0.70 | 6.4 ×10⁻⁶ cm/s |
| COC(=O)N1CCC[C@H](NS(C)(=O)=O)[C@@H]1CO[C@H]1CC[C@@H](c2ccccc2)CC1 [Reference Compound A, methyl (2R,3S)-3-((methylsulfonyl)amino)-2-(((cis-4-phenylcyclohexyl)oxy)methyl)-piperidine-l-carboxylate, reference compound] |  | 5.9 | 76 µL/min/1e6 cells | 0.92 | 5 ×10⁻⁶ cm/s |
| CC(C)(O)C(=O)N1CC[C@H](NS(C)(=O)=O)[C@@H]1Cc1cccc(-c2cc(F)cc(F)c2)c1F [Reference Compound B, N-((2S,3S)-1-(2-hydroxy-2-methylpropanoy1)-2-((2,3′,5′-trifluorobipheny1-3-yl)methyl)pyrrolidin-3-yl)methanesulfonamide, reference compound] |  | > 100 | 1.5 µL/min/1e6 cells | 0.19 | 0.21 ×10⁻⁶ cm/s |
